Experimental data taken from US20250339569A1, “CARBONIC ANHYDRASE IX LIGANDS” (priority 2021, published 2025).
Starred links: 1 amine or outer side, 2 acyl side, 3 side chain; linkers in the order of their positions; H or OH if unused. Positions of bridges follow the written chain, without caps; N, C: chain ends. Non-standard residues stand in square brackets, D forms with d. Residues, ends and D or L forms follow the SMILES beside them. *: point of attachment. X63 = O=C1CC[C@@H](C(=O)Nc2cccc(C[C@H](N[*:1])C(=O)[*:2])c2)N1; X62 = O=C(Nc1cccc(C[C@H](N[*:1])C(=O)[*:2])c1)c1c[nH]cn1; DOTA = O=C(O)CN1CCN(CC(=O)O)CCN(CC(=O)*)CCN(CC(=O)O)CC1; X66 = NC(=O)CCC(=O)Nc1cccc(C[C@H](N[*:1])C(=O)[*:2])c1; X68 = CC1(C(=O)Nc2cccc(C[C@H](N[*:1])C(=O)[*:2])c2)CC1; X54 = O=C(Nc1cccc(C[C@H](N[*:1])C(=O)[*:2])c1)c1cnco1; X43 = CCC(=O)Nc1cccc(C[C@H](N[*:1])C(=O)[*:2])c1; Phe(4-NH2) = Nc1ccc(C[C@H](N)C(=O)O)cc1; mXylylene = c1cc(C[*:1])cc(C[*:2])c1; X2 = O=C(CN1CCC(N[*:1])CC1)[*:2]; Isonicotinoyl = O=C(c1ccncc1)*; X58 = CS(=O)(=O)c1ccc(CN*)cc1; X42 = c1ccc2cc(CN*)ccc2c1; X64 = c1cc2cc(CN*)ccc2cn1; Dap = NC[C@H](N)C(=O)O; X70 = N#Cc1ccc(CN*)cc1; AEEA = NCCOCCOCC(=O)O; X45 = COCc1cc(CN*)on1; X56 = O=C(c1nccs1)*

What follows are compounds tested against T1, CAIX-expressing human HT-29 colorectal cancer cells (Homo sapiens, UniProt Q16790) (assay: FACS binding assay (IC50 determination, competition with tracer 3BP-2776 or 3BP-4149)). Details: FACS binding assay, HT-29 cells, competition with tracer 3BP-2776 (10 nM, biotin-labeled), 4° C., 1 hour; read-out: pIC50 category (activity) (converted).
T1 construct: CAIX-expressing human HT-29 colorectal cancer cells; host or cells: HT-29 human colorectal cancer cells
Method in brief: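 HT-29 cells in FACS buffer (PBS, 1% FCS) at 500.000 cells/ml were exposed to compounds competing with a labelled tracer, with biotinylated compounds detected by 1 μg/mL APC-streptavidin for 30 min on ice. APC/Cy5 median fluorescence was read by flow cytometry and IC50 derived by 4PL fit.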

Structure (SMILES)	IC50 [nM]
CC(C)C[C@@H]1NC(=O)[C@H](Cc2ccc(NC(=O)c3nccs3)cc2)NC(=O)[C@H](CC(=O)O)NC(=O)[C@H]2CCCN2C(=O)[C@H](CCC(=O)O)NC(=O)[C@@H](NC(=O)[C@H](Cc2ccc(O)cc2)NC(=O)[C@@H](NC(=O)CN2CCC(NC(=O)CN3CCN(CC(=O)O)CCN(CC(=O)O)CCN(CC(=O)O)CC3)CC2)C(C)C)CSCc2cccc(c2)CSC[C@@H](C(N)=O)NC(=O)[C@H](CO)NC(=O)[C@H](Cc2c[nH]c3ccccc23)NC(=O)[C@H]([C@@H](C)O)NC1=O [3BP-4180] ({DOTA}-[X2]VYCE[dP]D[Phe(4-NH2)](X56)LTWSC-NH2; linker 4-13 via mXylylene)	100 to 794
CC(C)C[C@@H]1NC(=O)[C@H](Cc2cccc(NC(=O)C3(C)CC3)c2)NC(=O)[C@H](CC(=O)O)NC(=O)[C@H]2CCCN2C(=O)[C@H](CCC(=O)O)NC(=O)[C@@H](NC(=O)[C@H](Cc2ccc(O)cc2)NC(=O)[C@@H](NC(=O)CN2CCC(NC(=O)CN3CCN(CC(=O)O)CCN(CC(=O)O)CCN(CC(=O)O)CC3)CC2)C(C)C)CSCc2cccc(c2)CSC[C@@H](C(N)=O)NC(=O)[C@H](CO)NC(=O)[C@H](Cc2c[nH]c3ccccc23)NC(=O)[C@H]([C@@H](C)O)NC1=O [3BP-4234] ({DOTA}-[X2]VYCE[dP]D[X68]LTWSC-NH2; linker 4-13 via mXylylene)	< 10
CC(C)C[C@@H]1NC(=O)[C@H](Cc2cccc(NC(=O)CCC(N)=O)c2)NC(=O)[C@H](CC(=O)O)NC(=O)[C@H]2CCCN2C(=O)[C@H](CCC(=O)O)NC(=O)[C@@H](NC(=O)[C@H](Cc2ccc(O)cc2)NC(=O)[C@@H](NC(=O)CN2CCC(NC(=O)CN3CCN(CC(=O)O)CCN(CC(=O)O)CCN(CC(=O)O)CC3)CC2)C(C)C)CSCc2cccc(c2)CSC[C@@H](C(N)=O)NC(=O)[C@H](CO)NC(=O)[C@H](Cc2c[nH]c3ccccc23)NC(=O)[C@H]([C@@H](C)O)NC1=O [3BP-4238] ({DOTA}-[X2]VYCE[dP]D[X66]LTWSC-NH2; linker 4-13 via mXylylene)	10 to 79.4
CC(C)C[C@@H]1NC(=O)[C@H](Cc2cccc(NC(=O)c3cnco3)c2)NC(=O)[C@H](CC(=O)O)NC(=O)[C@H]2CCCN2C(=O)[C@H](CCC(=O)O)NC(=O)[C@@H](NC(=O)[C@H](Cc2ccc(O)cc2)NC(=O)[C@@H](NC(=O)CN2CCC(NC(=O)CN3CCN(CC(=O)O)CCN(CC(=O)O)CCN(CC(=O)O)CC3)CC2)C(C)C)CSCc2cccc(c2)CSC[C@@H](C(N)=O)NC(=O)[C@H](CO)NC(=O)[C@H](Cc2c[nH]c3ccccc23)NC(=O)[C@H]([C@@H](C)O)NC1=O [3BP-4239] ({DOTA}-[X2]VYCE[dP]D[X54]LTWSC-NH2; linker 4-13 via mXylylene)	10 to 79.4
CC(C)C[C@@H]1NC(=O)[C@H](Cc2cccc(NC(=O)[C@@H]3CCC(=O)N3)c2)NC(=O)[C@H](CC(=O)O)NC(=O)[C@H]2CCCN2C(=O)[C@H](CCC(=O)O)NC(=O)[C@@H](NC(=O)[C@H](Cc2ccc(O)cc2)NC(=O)[C@@H](NC(=O)CN2CCC(NC(=O)CN3CCN(CC(=O)O)CCN(CC(=O)O)CCN(CC(=O)O)CC3)CC2)C(C)C)CSCc2cccc(c2)CSC[C@@H](C(N)=O)NC(=O)[C@H](CO)NC(=O)[C@H](Cc2c[nH]c3ccccc23)NC(=O)[C@H]([C@@H](C)O)NC1=O [3BP-4241] ({DOTA}-[X2]VYCE[dP]D[X63]LTWSC-NH2; linker 4-13 via mXylylene)	10 to 79.4

More lines, now with the values ahead:

IC50 [nM]	Structure (SMILES)
100 to 794	CC(C)C[C@@H]1NC(=O)[C@H](Cc2ccc(NC(=O)c3ccncc3)cc2)NC(=O)[C@H](CC(=O)O)NC(=O)[C@H]2CCCN2C(=O)[C@H](CCC(=O)O)NC(=O)[C@@H](NC(=O)[C@H](Cc2ccc(O)cc2)NC(=O)[C@@H](NC(=O)CN2CCC(NC(=O)CN3CCN(CC(=O)O)CCN(CC(=O)O)CCN(CC(=O)O)CC3)CC2)C(C)C)CSCc2cccc(c2)CSC[C@@H](C(N)=O)NC(=O)[C@H](CO)NC(=O)[C@H](Cc2c[nH]c3ccccc23)NC(=O)[C@H]([C@@H](C)O)NC1=O [3BP-4183] ({DOTA}-[X2]VYCE[dP]D[Phe(4-NH2)](Isonicotinoyl)LTWSC-NH2; linker 4-13 via mXylylene)
< 10	CC(C)C[C@@H]1NC(=O)[C@H](Cc2c[nH]c3ccccc23)NC(=O)[C@H](CCC(=O)NCc2ccc3ccccc3c2)NC(=O)[C@H]2CCCN2C(=O)[C@H](CCC(=O)O)NC(=O)[C@@H](NC(=O)[C@H](Cc2ccc(O)cc2)NC(=O)[C@@H](NC(=O)CN2CCC(NC(=O)CN3CCN(CC(=O)O)CCN(CC(=O)O)CCN(CC(=O)O)CC3)CC2)C(C)C)CSCc2cccc(c2)CSC[C@@H](C(N)=O)NC(=O)[C@H](CO)NC(=O)[C@H](Cc2c[nH]c3ccccc23)NC(=O)[C@H]([C@@H](C)O)NC1=O [3BP-4215, DOTA-APAc-Val-Tyr-[Cys(3MeBn)-Glu-pro-Glu(NHMe2Nph)-Trp-Leu-Thr-Trp-Ser-Cys]-NH2] ({DOTA}-[X2]VYCE[dP]E(X42)WLTWSC-NH2; linker 4-13 via mXylylene)
< 10	CCC(=O)Nc1cccc(C[C@@H]2NC(=O)[C@H](CC(=O)O)NC(=O)[C@H]3CCCN3C(=O)[C@H](CCC(=O)O)NC(=O)[C@@H](NC(=O)[C@H](Cc3ccc(O)cc3)NC(=O)[C@@H](NC(=O)CN3CCC(NC(=O)CN4CCN(CC(=O)O)CCN(CC(=O)O)CCN(CC(=O)O)CC4)CC3)C(C)C)CSCc3cccc(c3)CSC[C@@H](C(N)=O)NC(=O)[C@H](CO)NC(=O)[C@H](Cc3c[nH]c4ccccc34)NC(=O)[C@H]([C@@H](C)O)NC(=O)[C@H](CC(C)C)NC2=O)c1 [3BP-4235] ({DOTA}-[X2]VYCE[dP]D[X43]LTWSC-NH2; linker 4-13 via mXylylene)
10 to 79.4	CC(C)C[C@@H]1NC(=O)[C@H](Cc2cccc(NC(=O)c3c[nH]cn3)c2)NC(=O)[C@H](CC(=O)O)NC(=O)[C@H]2CCCN2C(=O)[C@H](CCC(=O)O)NC(=O)[C@@H](NC(=O)[C@H](Cc2ccc(O)cc2)NC(=O)[C@@H](NC(=O)CN2CCC(NC(=O)CN3CCN(CC(=O)O)CCN(CC(=O)O)CCN(CC(=O)O)CC3)CC2)C(C)C)CSCc2cccc(c2)CSC[C@@H](C(N)=O)NC(=O)[C@H](CO)NC(=O)[C@H](Cc2c[nH]c3ccccc23)NC(=O)[C@H]([C@@H](C)O)NC1=O [3BP-4240] ({DOTA}-[X2]VYCE[dP]D[X62]LTWSC-NH2; linker 4-13 via mXylylene)

Same assay, conditions: FACS binding assay, HT-29 cells, competition with tracer 3BP-4149 (3 nM, Cy5-labeled), 4° C., 1 hour; read-out: pIC50 category (activity) (converted)

Structure (SMILES)	IC50 [nM]
CC(C)C[C@@H]1NC(=O)[C@H](Cc2c[nH]c3ccccc23)NC(=O)[C@H](CC(=O)O)NC(=O)[C@H]2CCCN2C(=O)[C@H](CCC(=O)O)NC(=O)[C@@H]2CSCc3cccc(c3)CSC[C@@H](C(N)=O)NC(=O)[C@H](CNC(=O)C[C@H](NC(=O)COCCOCCNC(=O)CN3CCN(CC(=O)O)CCN(CC(=O)O)CCN(CC(=O)O)CC3)C(=O)N2)NC(=O)[C@H](Cc2c[nH]c3ccccc23)NC(=O)[C@H]([C@@H](C)O)NC1=O [3BP-4262] ({DOTA-AEEA}-DCE[dP]DWLTW[Dap]C-NH2; lactam 1-10; linker 2-11 via mXylylene)	10 to 79.4
CC(C)C[C@@H]1NC(=O)[C@H](Cc2c[nH]c3ccccc23)NC(=O)[C@H](CCC(=O)NCc2ccc3cnccc3c2)NC(=O)[C@H]2CCCN2C(=O)[C@H](CCC(=O)O)NC(=O)[C@@H](NC(=O)[C@H](Cc2ccc(O)cc2)NC(=O)[C@@H](NC(=O)CN2CCC(NC(=O)CN3CCN(CC(=O)O)CCN(CC(=O)O)CCN(CC(=O)O)CC3)CC2)C(C)C)CSCc2cccc(c2)CSC[C@@H](C(N)=O)NC(=O)[C@H](CO)NC(=O)[C@H](Cc2c[nH]c3ccccc23)NC(=O)[C@H]([C@@H](C)O)NC1=O [3BP-4328] ({DOTA}-[X2]VYCE[dP]E(X64)WLTWSC-NH2; linker 4-13 via mXylylene)	100 to 794
CC(C)C[C@@H]1NC(=O)[C@H](Cc2c[nH]c3ccccc23)NC(=O)[C@H](CCC(=O)NCc2ccc(S(C)(=O)=O)cc2)NC(=O)[C@H]2CCCN2C(=O)[C@H](CCC(=O)O)NC(=O)[C@@H](NC(=O)[C@H](Cc2ccc(O)cc2)NC(=O)[C@@H](NC(=O)CN2CCC(NC(=O)CN3CCN(CC(=O)O)CCN(CC(=O)O)CCN(CC(=O)O)CC3)CC2)C(C)C)CSCc2cccc(c2)CSC[C@@H](C(N)=O)NC(=O)[C@H](CO)NC(=O)[C@H](Cc2c[nH]c3ccccc23)NC(=O)[C@H]([C@@H](C)O)NC1=O [3BP-4333] ({DOTA}-[X2]VYCE[dP]E(X58)WLTWSC-NH2; linker 4-13 via mXylylene)	10 to 79.4
COCc1cc(CNC(=O)CC[C@@H]2NC(=O)[C@H]3CCCN3C(=O)[C@H](CCC(=O)O)NC(=O)[C@@H](NC(=O)[C@H](Cc3ccc(O)cc3)NC(=O)[C@@H](NC(=O)CN3CCC(NC(=O)CN4CCN(CC(=O)O)CCN(CC(=O)O)CCN(CC(=O)O)CC4)CC3)C(C)C)CSCc3cccc(c3)CSC[C@@H](C(N)=O)NC(=O)[C@H](CO)NC(=O)[C@H](Cc3c[nH]c4ccccc34)NC(=O)[C@H]([C@@H](C)O)NC(=O)[C@H](CC(C)C)NC(=O)[C@H](Cc3c[nH]c4ccccc34)NC2=O)on1 [3BP-4339] ({DOTA}-[X2]VYCE[dP]E(X45)WLTWSC-NH2; linker 4-13 via mXylylene)	10 to 79.4
CC(C)C[C@@H]1NC(=O)[C@H](Cc2c[nH]c3ccccc23)NC(=O)[C@H](CCC(=O)NCc2ccc(C#N)cc2)NC(=O)[C@H]2CCCN2C(=O)[C@H](CCC(=O)O)NC(=O)[C@@H](NC(=O)[C@H](Cc2ccc(O)cc2)NC(=O)[C@@H](NC(=O)CN2CCC(NC(=O)CN3CCN(CC(=O)O)CCN(CC(=O)O)CCN(CC(=O)O)CC3)CC2)C(C)C)CSCc2cccc(c2)CSC[C@@H](C(N)=O)NC(=O)[C@H](CO)NC(=O)[C@H](Cc2c[nH]c3ccccc23)NC(=O)[C@H]([C@@H](C)O)NC1=O [3BP-4340] ({DOTA}-[X2]VYCE[dP]E(X70)WLTWSC-NH2; linker 4-13 via mXylylene)	10 to 79.4
